Patent EP1452605A1, “Method for determining antiviral activity” (Universiteit Utrecht Holding B.V., priority 2003, dated 2004)
“And” between values parts separate entries of the source, which are not always exact repeats. Equal values may be shown once.

Experiments:
FIV UT-113 = test: FIV infection of CrFK cells, FIV p24 ELISA; assay type: cell-based, Feline immunodeficiency virus (FIV); settings: 100 to 0.024 µM, p24 after 6 days
Description: After 6 days of incubation FIV replication was measured by quantification of the p24 viral core antigen in the cell culture supernatant by an FIV p24 enzyme-linked immunoabsorbent assay as described previously ^19.

CrFK cells = test: Cellular viability assay (MTT) of CrFK cells; assay type: cell-based, feline; settings: concentrations used in the FIV assay
MHV-A59 = test: MHV infection of mouse L cells, CPE scoring; assay type: cell-based, Mouse hepatitis virus (MHV); settings: 24h, 143 to 0.009 µM
Description: (§1) After 24h, the cytopatic effect (CPE) of the virus and the cytotoxicity of the compounds were scored by microscopic observation.

Mouse L cells = test: Cytotoxicity in mouse L cells by microscopic observation; settings: mouse L cells, all tested concentrations
Description: as §1

HIV-1Ba-L [1] = test: HIV-1 infection of PBMC, p24-core antigen ELISA; assay type: cell-based; settings: Human immunodeficiency virus 1, PBMC; read-out: IC50
Description: To correct for the input virus, an extra control consisting of medium containing the same amount of input virus as added to the cells was included in the experiment. The amount of p24 in this control was subsequently subtracted from the p24 values of the samples in order to obtain the exact amount of p24 produced by the cells. p24-core antigen quantification by ELISA After 2 or 7 days incubation, samples of the supernatants were collected, inactivated by addition of Empigen (Calbiochem, La Jolla, CA, USA) and by heat inactivation at 56°C for 30 min. p24-core antigen concentration was determined by an enzyme linked immunoabsorbent assay (ELISA) (AMPAK™, DAKO, Cambridgeshire, UK) as described previously ^18,19. The optical density values were converted into p24 concentration (ng/ml) with the use of a calibration curve made by serial dilutions of recombinant p24 protein (NIBSC, UK) that was submitted to the same treatment as the samples.
(§2) To correct for the input virus, an extra control consisting of medium containing the same amount of input virus as added to the cells was included in the experiment. The amount of p24 in this control was subsequently subtracted from the p24 values of the samples in order to obtain the exact amount of p24 produced by the cells.
(§3) After 7 days incubation, samples of the supernatants were collected, inactivated by addition of Empigen (Calbiochem, La Jolla, CA, USA) and by heat inactivation at 56°C for 30 min. p24-core antigen concentration was determined by an ELISA (AMPAK™, DAKO, Cambridgeshire, UK) as described previously ^39,40. The optical density values were converted into p24 concentration (ng/ml) with the use of a calibration curve made by serial dilutions of recombinant p24 protein (NIBSC, UK) that was submitted to the same treatment as the samples.
as §2
as §3, with “enzyme linked immunoabsorbent assay (ELISA)” for “ELISA”, “15,16.” for “^39,40.”

HIV-1HXB2 = test: Reverse transcription assay in PBMC: (-) strong stop and gag DNA by real-time Taqman PCR; assay type: cell-based; settings: 10h after infection; for reduction in gag cDNA copies: PBMC
Description: PBMC infection with HIV-1Ba-L or HIV-1HXB2 for real-time Taqman PCR The ability of HIV-1Ba-L to enter the cells in the presence of APHS was tested using DS as positive control (entry assay). The amount of HIV-1HXB2 reverse transcription products in the presence of APHS was also tested, using AZT as positive control (reverse transcription assay). Before infection, PHA-stimulated PBMC from the PBMC batch were pre-incubated with different concentrations of APHS, DS or AZT for 24 h. Afterwards, cells were washed and 1 × 10^6 PBMC were incubated for 40 min with HIV-1Ba-L or HIV-1HXB2 at an M.O.I. of 0.0025 and with appropriate concentrations of APHS, AZT, DS or medium in the presence of 1/20 concentrated M buffer (Roche) and 4U/ml DNase (Roche) to digest possible contaminating viral DNA associated with the virions. Afterwards PBMC were washed and resuspended in medium with or without compounds. Cells were treated with 1 mg/ml Pronase (Roche) to remove virus particles bound to the cells. […] At different time points, 1.0 × 10^6 cells were added to 900 µl Nuclisens lysis buffer (Organon Teknika, Boxtel, The Netherlands) containing 40 µl silica to bind total nucleic acids (Nuclisens isolation kit). For the entry assay, samples were collected 2h after the start of the infection and for the reverse transcription assays samples were collected 2, 7 and 10h after the start of the infection.
HIV RNA and DNA were extracted from samples of infected cells according to a method described before ^23. Briefly, after 10 min of mixing the silica and lysis buffer, tubes were shortly centrifuged at 13,000 rpm and supernatant was discarded. Free non-nucleic acid components were removed by washing the silica particles twice with Nuclisens washing buffer, twice with 70 % ethanol and once with acetone. The silica pellet was dried for 10 min at 56 °C. Total nucleic acids were eluted by resuspending the pellet in 100 µl nuclease-free water. After mixing the tubes for 10 min at 56 °C, tubes were shortly centrifuged and the supernatant was transferred to a new tube and stored at -20 °C.
Real-time Taqman PCR is based on cleavage of a probe, hybridized to the target sequence by 5'-3' nuclease activity of Taq DNA polymerase during amplification, as described previously ^24. Briefly, target sequence-specific forward and reverse primers prime the amplification reaction. The probe contains a reporter dye at the 5' end and a quencher dye at the 3' end. When both dyes are attached to the probe, reporter dye emission is quenched. The probe is displaced from the target during each polymeration cycle. Once separated from the quencher, the reporter dye emits its characteristic fluorescence, which can then be measured. The amount of fluorescence measured is proportional to the amount of PCR product.
HIV-1 gag cDNA and HIV-1 (-) strong stop and gag DNA were amplified and quantified by real-time Taqman PCR as described elsewhere ^25. Sets of primers/probes were designed according to a previous study by Zack and colleagues ^26. To quantify the amount of gag RNA in the samples, a cDNA standard curve was prepared from five-fold dilutions of extracted RNA from an HXB2 viral batch, of which the RNA amount was previously determined. To quantify (-) strong stop and gag DNA in the samples, a DNA standard curve was prepared from five-fold dilutions of DNA extracted from U1 cells, which contain two copies of the HIV-1HXB2 genome per cell. Albumin was also quantified and used for normalization of all samples.

in vitro = settings: human
HIV-1Ba-L [2] = test: Combination of HIV-1 inhibitors in HIV-1Ba-L infected PBMC (checker board, CalcuSyn)
Description: After 7 days of incubation, p24 antigen in culture supernatant was quantified by ELISA and cellular viability was assessed by a cytotoxicity assay. fa was calculated for each drug combination after p24 quantification. Using the CalcuSyn program, dose-effect curves were plotted for each drug combination, i.e., each dose was plotted against the corresponding fa value. […] CI values were calculated using the mutually nonexclusive assumption.

In the case of `CCCCCSc1ccccc1O` [APHS-d, phenol, 2-(pentylthio)], the “effect on FIV replication” value (FIV UT-113) is reported as “did not show any effect”, the “cytotoxicity for CrFK cells” value (CrFK cells) is reported as “not cytotoxic” and the “effect on MHV replication (CPE)” value (MHV-A59) is reported as “no effect”. The “cytotoxicity by microscopic observation” value (Mouse L cells) was “not cytotoxic”.

In the case of `Cc1cn([C@H]2C[C@H](N=[N+]=[N-])[C@@H](CO)O2)c(=O)[nH]c1=O` [AZT, zidovudine], the IC50 (HIV-1Ba-L [1]) is reported as 3 nM, the “reduction in gag cDNA copies” value (HIV-1HXB2; 5 nM AZT) is reported as 35% and 40% and the “reduction in gag cDNA copies” value (HIV-1HXB2; 1000 nM AZT) is reported as 90%. For the same compound, the “(-) strong stop DNA copy numbers versus untreated PBMC” value (HIV-1HXB2; 10 or 30 µM APHS, 5 or 1000 nM AZT) was “did not show a significant decrease”, the CC50 at 7 days (in vitro) was over 80 µM and the IC50 (HIV-1Ba-L [2]; Human immunodeficiency virus 1, PBMC, 168 h, read-out: IC50 Drug, drug alone, head over this column prints Combination) was 3 nM. For the same compound, the IC50 (HIV-1Ba-L [2]; read-out: IC50 Combination Drug, drug in combination with APHS at the equipotent ratio (1 : 1)) was 2 nM.
